The source of these data is patent US6710048B2, “Pyrazine derivatives as modulators of tyrosine kinases” (Ortho-McNeil Pharmaceutical, Inc., priority 2000, dated 2004).

T2 sequence (P06493 whole entry): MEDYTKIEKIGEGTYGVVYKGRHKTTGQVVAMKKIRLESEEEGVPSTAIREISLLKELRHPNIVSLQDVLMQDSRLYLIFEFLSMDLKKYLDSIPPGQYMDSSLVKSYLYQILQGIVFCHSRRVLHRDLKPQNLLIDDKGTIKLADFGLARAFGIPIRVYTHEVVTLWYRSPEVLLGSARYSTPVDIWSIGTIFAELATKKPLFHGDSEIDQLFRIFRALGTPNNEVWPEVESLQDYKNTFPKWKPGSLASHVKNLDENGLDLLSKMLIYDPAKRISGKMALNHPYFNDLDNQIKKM
T2 sequence (P14635 whole entry partner): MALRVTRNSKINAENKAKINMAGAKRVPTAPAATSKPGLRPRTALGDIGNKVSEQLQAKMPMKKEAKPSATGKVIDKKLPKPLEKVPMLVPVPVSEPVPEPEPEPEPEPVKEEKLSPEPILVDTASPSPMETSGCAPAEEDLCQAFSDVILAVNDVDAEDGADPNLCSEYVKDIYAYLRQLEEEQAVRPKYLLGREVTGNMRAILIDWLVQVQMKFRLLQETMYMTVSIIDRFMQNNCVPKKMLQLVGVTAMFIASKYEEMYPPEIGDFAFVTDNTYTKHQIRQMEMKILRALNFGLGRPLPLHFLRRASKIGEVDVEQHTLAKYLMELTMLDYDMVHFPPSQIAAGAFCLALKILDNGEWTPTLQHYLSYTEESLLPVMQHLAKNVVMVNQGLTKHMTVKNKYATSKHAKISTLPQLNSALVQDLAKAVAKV

The target of the first test is T1, VEGF-R (vascular endothelial growth factor receptor-2) (Rattus norvegicus, UniProt O08775).
T1 construct: polyhistidine (6xHis) (N)
T1 sequence (O08775 786-1343): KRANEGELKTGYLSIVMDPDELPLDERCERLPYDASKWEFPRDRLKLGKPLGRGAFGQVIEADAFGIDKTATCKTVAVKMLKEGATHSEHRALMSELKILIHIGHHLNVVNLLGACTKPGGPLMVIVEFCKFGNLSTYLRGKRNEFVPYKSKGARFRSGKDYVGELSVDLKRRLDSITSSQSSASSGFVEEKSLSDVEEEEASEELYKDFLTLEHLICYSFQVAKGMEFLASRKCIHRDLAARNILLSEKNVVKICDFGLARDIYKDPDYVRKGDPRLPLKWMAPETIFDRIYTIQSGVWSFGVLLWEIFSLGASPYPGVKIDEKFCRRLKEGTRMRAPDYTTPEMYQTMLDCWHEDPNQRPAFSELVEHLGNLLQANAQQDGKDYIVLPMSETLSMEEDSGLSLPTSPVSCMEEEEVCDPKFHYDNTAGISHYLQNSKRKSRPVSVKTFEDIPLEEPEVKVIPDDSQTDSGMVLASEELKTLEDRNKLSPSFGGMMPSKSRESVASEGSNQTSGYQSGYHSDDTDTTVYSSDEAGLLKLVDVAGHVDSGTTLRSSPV
The test is described as follows: VEGF-R screening assay (33P FlashPlate kinase assay). Type of test: biochemical. To be noted: Tables 1-3; >10 or >100 = no 50% inhibition at highest dose tested; read-out: VEGF-R IC50. Here is the method: A kinase reaction mixture was prepared containing 50 mM Tris-HCl pH=8, 10 mM MgCl2, 0.1 mM NAPO4, 1 mM DTT, 10 μM ATP, 0.025 μM biotinylated peptide substrate and 0.8 μCuries per well ^33P-γ-ATP [2000-3000 Ci/mmol]. 70 μl of the kinase reaction mixture was dispensed into the well of a streptavidin coated FlashPlate™ (Cat. # SMP103, NEN, Boston, Mass.). Then 1 μl of test compound stock in 100% DMSO was added to the wells resulting in a final concentration of 1% DMSO in the reaction with a 100 μl final reaction volume. Next, soluble rat tyrosine kinase containing an N-terminal 6×HIS tag was diluted in 50 mM Tris-HCl pH=8.0, 0.1% BSA at a concentration of 5 ng per microliter and 30 μl (150 ng enzyme per test well) was added to each well to initiate the reaction. The reaction was incubated for one hour at 30° C. At the end of the 1-hour incubation, the reaction was terminated by aspirating the reaction mixture from the plate and washing the wells twice with PBS containing 100 mM EDTA. The PLCI biotinylated peptide substrate becomes immobilized on the Flashplate™ and the incorporation of ^33P-γ-ATP was measured by reading the plate on a scintillation counter. Inhibition of the enzymatic activity of the VEGF-R was measured by observing a reduced amount of ^33P-γ-ATP incorporated into the immobilized peptide.
(§1) The term n.d. means not tested.
(§2) Assays to test compound inhibition of other kinases were preformed using methods that measure the amount of phosphorylation of a biotinylated peptide substrate. Biotinylated peptide substrates were selected from the literature as appropriate for the enzyme being evaluated. The general procedure used to assay for kinase activity is as follows: A kinase reaction mix was prepared in 50 mM Tris-HCl pH=8, 10 mM MgCl2, 0.1 mM NaVO4, 1 mM DTT, 5-10 μM ATP, 0.25-1 μM biotinylated peptide substrate, 0.2-0.8 μCuries per well ^33P-γ-ATP [2000-3000 Ci/mmol]. Assay conditions vary slightly for each protein kinase, for example, insulin receptor kinase requires 10 mM MnCl2 for activity and Calmodulin-dependent protein kinase requires calmodulin and 2 mM CaCl2. The reaction mixture was dispensed into the wells of a streptavidin coated Flashplate and 1 μl drug stock in 100% DMSO was added to a 100 μl reaction volume resulting in a final concentration of 1% DMSO in the reaction. Enzyme was diluted in 50 mM Tris-HCl pH=8.0, 0.1% BSA and added to each well. The reaction was incubated for one hour at 30° C. in the presence of compound. After one hour the reaction mix was aspirated from the plate and the plate was washed with PBS containing 100 mM EDTA. The plate was read on a scintillation counter to determine ^33P-γ-ATP incorporated into the immobilized peptide. Test compounds were assayed in duplicate at 8 concentrations [100 tM, 10 μM, 1 μM, 100 nM, 10 nM, 1 nM, 100 μM, 10 μM]. A maximum and minimum signal for the assay was determined on each plate. The IC50 was calculated from the dose response curve of the percent inhibition of the maximum signal in the assay according to the formula [max signal−background/test compound signal−background (100)=% inhibition] by graphing the percent inhibition against the log concentration of test compound. Known inhibitor compounds appropriate for the kinase being assayed were also included on each plate.
VEGF-R (vascular endothelial growth factor receptor-2) is a fusion protein containing a polyhistidine tag at the N-terminus followed by amino acids 786-1343 of the rat VEGF-R2 kinase domain (GenBank Accession #U93306). CDK1 (cyclin dependent kinase 1) is isolated from insect cells expressing both the human CDK1 catalytic subunit and its positive regulatory subunit cyclin B (New England Biolabs, Beverly, Mass., Cat. #6020). CDK4 (cyclin dependent kinase 4) contains amino acids 769 to 921 of the mouse […] protein found in the GST-retinoblastoma protein construct (Santa Cruz Biotechnology, Santa Cruz, Calif.; Cat. #SC-4112). […]
Consider `OCCCNc1cncc(-c2cncc(Oc3cccc(Cl)c3)n2)c1` [Cmd 96], for which the IC50 was more than 10 µM.
As to `OCCCNc1cnc(F)c(-c2cncc(Nc3cccc(Cl)c3)n2)c1` [Cmd 106], the IC50 is 0.138 to 0.365 µM.
The same measure, in the same setting: the same measure for `Clc1cccc(Nc2cncc(-c3cncc(NCCCN4CCOCC4)c3)n2)c1` [Cmd 34]: 0.18 µM; for `O=C(COCc1ccccc1)Nc1cncc(-c2cncc(Nc3cccc(Cl)c3)n2)c1` [Cmd 101]: more than 10 µM.
For the compound `OCCOCCOCCNc1cncc(-c2cncc(Nc3cccc(Cl)c3)n2)c1` [Cmd 78], the IC50 stood at 0.282 µM.
On the same count and under the same terms, in the case of `O=C(CCCOc1ccccc1)Nc1cncc(-c2cncc(Nc3cccc(Cl)c3)n2)c1` [Cmd 100] it was more than 10 µM.
Take `CCN(CC)C(=O)CNc1cncc(-c2cncc(Nc3cccc(Cl)c3)n2)c1` [Cmd 81]: the IC50 worked out at 1.1 µM.
For `N#Cc1ncc(NCCCO)cc1-c1cncc(Nc2cccc(Cl)c2)n1` [Cmd 111], the IC50 was more than 10 µM.
Consider `CN(C)c1ccc(C(=O)Nc2cncc(-c3cncc(Nc4cccc(Cl)c4)n3)c2)cc1` [Cmd 42], for which the IC50 was more than 100 µM.
Take `Clc1cccc(Nc2cncc(-c3cncc(NCCCN4CCN(c5cccc(Cl)c5)CC4)c3)n2)c1` [Cmd 86]: the IC50 was more than 10 µM.
As to `O=C(CO)Nc1cncc(-c2cncc(Nc3cccc(Cl)c3)n2)c1` [Cmd 105], the IC50 was 0.41 µM.
Regarding `OCCCNc1cncc(-c2cncc(Nc3cccc(F)c3)n2)c1` [Cmd 52], the IC50 was 0.17 µM.
For the compound `CCOCC(=O)Nc1cncc(-c2cncc(Nc3cccc(Cl)c3)n2)c1` [Cmd 102], the IC50 is 0.93 µM.

A further test has as its system HeLa cervical adenocarcinoma. The test is described as follows: Cell proliferation assay (14C-thymidine incorporation), HeLa. Type of test: cell-based. The note with it: Homo sapiens, read-out: Inhibition of cell proliferation IC50. Here is the method:
(§3) The ability of a test compound to inhibit the proliferation of cell growth was determined by measuring incorporation of ^14C-labelled thymidine into newly synthesized DNA within the cells. This method was used on cell lines derived from carcinomas originating from several tissues such as HeLa cervical adenocarcinoma (American Type Culture Collection (ATCC), Virginia, Cat. #CCL-2), A375 malignant melanoma (ATCC CRL-1619), SK-OV-3 ovarian adenocarcinoma (ATCC HTB-77) HCT-116 colon carcinoma (CCL-247) and PC-3 prostate adenocarcinoma (ATCC CRL-1435). The method was also used on primary cells such as HUVEC endothelial cells (ATCC CRL-1730). In this way the effect of a compound on cell growth of cells with many different phenotypes can be determined. Cells were trypsinized and counted and 3000-8000 cells were added to each well of a 96-well CytoStar tissue culture treated scintillating microplate (Amersham #RPNQ0160) in complete medium in a volume of 100 μl. Cells were incubated for 24 hours in complete medium at 37° C. in an atmosphere containing 5% CO2.
(§4) Next, 1 μl of test compound in 100% DMSO was added to the wells of the plate. DMSO only was added to control wells. Cells were incubated for 24 more hours in complete medium at 37° C. in an atmosphere containing 5% CO2. Methyl ^14C-thymidine 56 mCi/mmol (NEN #NEC568 or Amersham #CFA532) was diluted in complete medium and 0.2 μCi/well was added to each well of the CytoStar plate in a volume of 20 μl. The plate was incubated for 24 hours at 37° C. plus 5% CO2 in drug plus ^14C-thymidine. The contents of the plate were discarded into a ^14C radioactive waste container by inverting the plate and the plate was washed twice with 200 μl PBS. 200 μl of PBS is then added to each well. The top of the plate was sealed with a transparent plate sealer and a white plate backing sealer (Packard #6005199) was applied to the bottom of the plate. The degree of Methyl ^14C-thymidine incorporation was quantified on a Packard Top Count.
As to `Clc1cccc(Nc2cncc(-c3cncc(NCCCn4cccn4)c3)n2)c1` [Cmd 75, N-(3-chlorophenyl)-6-[5-[[3-(1H-pyrazol-1-yl)propyl]amino]-3-pyridinyl]-2-pyrazinamine], the IC50 turned out to be 12.5 µM.
On the same count and under the same terms, the same measure for `Clc1cccc(Nc2cncc(-c3cncc(NCCCn4cncn4)c3)n2)c1` [Cmd 76, N-(3-chlorophenyl)-6-[5-[[3-(1H-1,2,4-triazol-1-yl)propyl]amino]-3-pyridinyl]-2-pyrazinamine]: 4.94 µM.

In another test the test system is SK-OV-3 ovarian adenocarcinoma. As to the kind of experiment: Cell proliferation assay (14C-thymidine incorporation), SK-OV-3. Type of test: cell-based. To be noted: Homo sapiens, read-out: Inhibition of cell proliferation IC50. Here is the method:
as §3, §4
Turning to `Clc1cccc(Nc2cncc(-c3cncc(NCCCn4cccn4)c3)n2)c1` [Cmd 75, N-(3-chlorophenyl)-6-[5-[[3-(1H-pyrazol-1-yl)propyl]amino]-3-pyridinyl]-2-pyrazinamine], the IC50 was more than 10 µM.
The same measure, in the same setting: in the case of `Clc1cccc(Nc2cncc(-c3cncc(NCCCn4cncn4)c3)n2)c1` [Cmd 76, N-(3-chlorophenyl)-6-[5-[[3-(1H-1,2,4-triazol-1-yl)propyl]amino]-3-pyridinyl]-2-pyrazinamine] it was 12.9 µM.

Another test concerns the target T2, CDK1 (cyclin dependent kinase 1) / cyclin B (Homo sapiens, UniProt P06493).
T2 construct: purchased New England Biolabs 6020; host or cells: insect cells
The test is described as follows: CDK1 kinase assay. Type of test: biochemical. To be noted: Tables 1-3; >10 or >100 = no 50% inhibition at highest dose tested; read-out: CDK IC50. Here is the method: as §1
as §2, with “Test compounds were assayed in duplicate at 8 concentrations [100 tM, 10 μM, 1 μM, 100 nM, 10 nM, 1 nM, 100 μM, 10 μM].” left out
VEGF-R (vascular endothelial growth factor receptor-2) is a fusion protein containing a polyhistidine tag at the N-terminus followed by amino acids 786-1343 of the rat VEGF-R2 kinase domain (GenBank Accession #U93306). CDK1 (cyclin dependent kinase 1) is isolated from insect cells expressing both the human CDK1 catalytic subunit and its positive regulatory subunit cyclin B (New England Biolabs, Beverly, Mass., Cat. #6020). CDK4 (cyclin dependent kinase 4) contains amino acids 769 to 921 of the mouse […] protein found in the GST-retinoblastoma protein construct (Santa Cruz Biotechnology, Santa Cruz, Calif.; Cat. #SC-4112). Insulin Receptor Kinase consists of residues 941-1313 of the cytoplasmic domain of the beta-subunit of the human insulin receptor (BIOMOL, Plymouth Meeting, Pa., Cat. #SE-195). Protein Kinase A is the catalytic subunit of cAMP dependent protein kinase-A purified from bovine heart (Upstate Biotech, Lake Placid, N.Y., Cat#14-114). PKC (protein kinase-C) is the gamma or beta isoform of the human protein produced in insect cells (BIOMOL, Plymouth Meeting, Pa., Cat. #SE-143). Casein Kinase 1 is a truncation at amino acid 318 of the C-terminal portion of the rat CK1 delta isoform produced in E.coli (New England Biolabs, Beverly, Mass., Cat. #6030). Casein Kinase 2 includes the alpha and beta subunits of the human CK2 protein produced in E.coli (New England Biolabs, Beverly, Mass., Cat. #6010). Calmodulin Kinase (calmodulin-dependent protein kinase 2) is a truncated version of the alpha subunit of the rat protein produced in insect cells (New England Biolabs, Beverly, Mass., Cat. #6060). Glycogen Synthase Kinase-3 is the beta isoform of the rabbit enzyme produced in E. coli (New England Biolabs, Beverly, Mass., Cat. #6040). MAP Kinase is the rat ERK-2 isoform containing a polyhistidine tag at the N-terminus produced in E. coli. and activated by phosphorylation with MEK1 prior to purification (BIOMOL, Plymouth Meeting, Pa., Cat. #SE-137). EGFR (epidermal growth factor receptor) is purified from human A431 cell membranes (Sigma, St. Louis, Mo., Cat.# E3641). […]
Turning to `OCCCNc1cncc(-c2cncc(Oc3cccc(Cl)c3)n2)c1` [Cmd 96], the IC50 was more than 10 µM.
`OCCCNc1cnc(F)c(-c2cncc(Nc3cccc(Cl)c3)n2)c1` [Cmd 106]: the IC50 is more than 10 µM.
In the case of `Clc1cccc(Nc2cncc(-c3cncc(NCCCN4CCOCC4)c3)n2)c1` [Cmd 34], the IC50 is more than 100 µM.
On the same count and under the same terms, the same measure for `O=C(COCc1ccccc1)Nc1cncc(-c2cncc(Nc3cccc(Cl)c3)n2)c1` [Cmd 101]: more than 10 µM; for `OCCOCCOCCNc1cncc(-c2cncc(Nc3cccc(Cl)c3)n2)c1` [Cmd 78]: more than 10 µM; for `O=C(CCCOc1ccccc1)Nc1cncc(-c2cncc(Nc3cccc(Cl)c3)n2)c1` [Cmd 100]: more than 10 µM.
As to `CCN(CC)C(=O)CNc1cncc(-c2cncc(Nc3cccc(Cl)c3)n2)c1` [Cmd 81], the IC50 is more than 10 µM.
With `N#Cc1ncc(NCCCO)cc1-c1cncc(Nc2cccc(Cl)c2)n1` [Cmd 111], the IC50 is more than 10 µM.
On to `CN(C)c1ccc(C(=O)Nc2cncc(-c3cncc(Nc4cccc(Cl)c4)n3)c2)cc1` [Cmd 42], for which the IC50 is more than 100 µM.
Same read-out and setting: in the case of `Clc1cccc(Nc2cncc(-c3cncc(NCCCN4CCN(c5cccc(Cl)c5)CC4)c3)n2)c1` [Cmd 86] it was more than 10 µM.
On the same count and under the same terms, in the case of `O=C(CO)Nc1cncc(-c2cncc(Nc3cccc(Cl)c3)n2)c1` [Cmd 105] it was more than 10 µM; in that of `OCCCNc1cncc(-c2cncc(Nc3cccc(F)c3)n2)c1` [Cmd 52], approximately 100 µM.
Same read-out and setting: in the case of `CCOCC(=O)Nc1cncc(-c2cncc(Nc3cccc(Cl)c3)n2)c1` [Cmd 102] it was more than 10 µM.

Another test relates to PC-3 prostate adenocarcinoma. The test is described as follows: Cell proliferation assay (14C-thymidine incorporation), PC-3. Type of test: cell-based. The note with it: Homo sapiens, read-out: Inhibition of cell proliferation IC50. On the procedure: as §3, §4
As to `Clc1cccc(Nc2cncc(-c3cncc(NCCCn4cccn4)c3)n2)c1` [Cmd 75, N-(3-chlorophenyl)-6-[5-[[3-(1H-pyrazol-1-yl)propyl]amino]-3-pyridinyl]-2-pyrazinamine], the IC50 came to 5.34 µM.
